Experimental data: ChEMBL document CHEMBL5625252, “Synthesis of peptidomimetics as antibiotic adjuvants for combination with aztreonam to combat MDR Pseudomonas aeruginosa” (Eur J Med Chem, 2023)
≈ marks a conversion by molar mass, not a printed value. Where a SMILES comes first, the peptide text is derived from it. The star is where a group is joined. βNA = c1ccc2cc(N*)ccc2c1

What was measured:
Pseudomonas aeruginosa [1] = assay: Synergistic antibacterial activity against Pseudomonas aeruginosa PAO1 assessed as fractional inhibitory concentration index incubated for 18 hrs in presence of aztreonam by checkerboard method; assay type: functional
[2] = Cytotoxicity against HEK293 cells incubated for 24 hrs by MTT assay; assay type: toxicity, cell-based; details: human
[3] = Cytotoxicity against human LX2 cells incubated for 24 hrs by MTT assay; assay type: toxicity, cell-based; details: LX-2 cells
Pseudomonas aeruginosa [4] = assay: Synergistic antibacterial activity against Pseudomonas aeruginosa PAO1 assessed as aztreonam MIC at 64 ug/ml incubated for 18 hrs by checkerboard method (reference value: 8 microg/ml); assay type: functional; details: dose 64 µg/ml
Pseudomonas aeruginosa [5] = assay: Antibacterial activity against Pseudomonas aeruginosa 21-8 assessed as inhibition of bacterial growth incubated for 18 hrs by agar dilution method; assay type: functional
Pseudomonas aeruginosa [6] = assay: Antibacterial activity against Pseudomonas aeruginosa 23-Y417 assessed as inhibition of bacterial growth incubated for 18 hrs by agar dilution method; assay type: functional
Pseudomonas aeruginosa [7] = assay: Antibacterial activity against Pseudomonas aeruginosa 21-2 assessed as inhibition of bacterial growth incubated for 18 hrs by agar dilution method; assay type: functional
Pseudomonas aeruginosa [8] = assay: Antibacterial activity against Pseudomonas aeruginosa 23-Y364 assessed as inhibition of bacterial growth incubated for 18 hrs by agar dilution method; assay type: functional
Pseudomonas aeruginosa [9] = assay: Synergistic antibacterial activity against Pseudomonas aeruginosa 23-Y122 assessed as aztreonam MIC at 128 ug/ml incubated for 18 hrs by checkerboard method; assay type: functional; details: dose 128 µg/ml
Pseudomonas aeruginosa [10] = assay: Synergistic antibacterial activity against Pseudomonas aeruginosa 12-1 assessed as aztreonam MIC at 128 ug/ml incubated for 18 hrs by checkerboard method; assay type: functional; details: dose 128 µg/ml
Pseudomonas aeruginosa [11] = assay: Synergistic antibacterial activity against Pseudomonas aeruginosa PAO1 assessed as fractional inhibitory concentration index at 128 ug/ml incubated for 18 hrs in presence of aztreonam by checkerboard method; assay type: functional; details: dose 128 µg/ml
Pseudomonas aeruginosa [12] = assay: Synergistic antibacterial activity against Pseudomonas aeruginosa 13-35 assessed as fractional inhibitory concentration index at 128 ug/ml incubated for 18 hrs in presence of aztreonam by checkerboard method; assay type: functional; details: dose 128 µg/ml
Pseudomonas aeruginosa [13] = assay: Synergistic antibacterial activity against Pseudomonas aeruginosa 23-Y122 assessed as fractional inhibitory concentration index at 128 ug/ml incubated for 18 hrs in presence of aztreonam by checkerboard method; assay type: functional; details: dose 128 µg/ml
Pseudomonas aeruginosa [14] = assay: Synergistic antibacterial activity against Pseudomonas aeruginosa 12-1 assessed as fractional inhibitory concentration index at 128 ug/ml incubated for 18 hrs in presence of aztreonam by checkerboard method; assay type: functional; details: dose 128 µg/ml
Pseudomonas aeruginosa [15] = assay: Synergistic antibacterial activity against Pseudomonas aeruginosa 21-2 assessed as fractional inhibitory concentration index at 128 ug/ml incubated for 18 hrs in presence of aztreonam by checkerboard method; assay type: functional; details: dose 128 µg/ml
Pseudomonas aeruginosa [16] = assay: Synergistic antibacterial activity against Pseudomonas aeruginosa 19-46 assessed as fractional inhibitory concentration index at 128 ug/ml incubated for 18 hrs in presence of aztreonam by checkerboard method; assay type: functional; details: dose 128 µg/ml
Pseudomonas aeruginosa [17] = assay: Synergistic antibacterial activity against Pseudomonas aeruginosa 19-55 assessed as fractional inhibitory concentration index at 128 ug/ml incubated for 18 hrs in presence of aztreonam by checkerboard method; assay type: functional; details: dose 128 µg/ml
Pseudomonas aeruginosa [18] = assay: Synergistic antibacterial activity against Pseudomonas aeruginosa 21-7 assessed as fractional inhibitory concentration index at 128 ug/ml incubated for 18 hrs in presence of aztreonam by checkerboard method; assay type: functional; details: dose 128 µg/ml
Pseudomonas aeruginosa [19] = assay: Antibacterial activity against Pseudomonas aeruginosa PAO1 assessed as fractional inhibitory concentration index upto 128 ug/ml incubated for 18 hrs in presence of aztreonam by checkerboard method; assay type: functional; details: dose <= 128 µg/ml
Pseudomonas aeruginosa [20] = assay: Antibacterial activity against Pseudomonas aeruginosa 13-35 in CAMH broth medium supplemented with 0.41 to 0.51 mM Mg2+ by checkerboard assay; assay type: functional
Pseudomonas aeruginosa [21] = assay: Antibacterial activity against Pseudomonas aeruginosa 16-11 in CAMH broth medium supplemented with 20.99 to 21.09 mM Mg2+ by checkerboard assay; assay type: functional
Pseudomonas aeruginosa [22] = assay: Antibacterial activity against Pseudomonas aeruginosa 13-35 in CAMH broth medium supplemented with 20.99 to 21.09 mM Mg2+ by checkerboard assay; assay type: functional
Pseudomonas aeruginosa [23] = assay: Antibacterial activity against Pseudomonas aeruginosa 12-1 in CAMH broth medium supplemented with 20.99 to 21.09 mM Mg2+ by checkerboard assay; assay type: functional
Pseudomonas aeruginosa [24] = assay: Synergistic antibacterial activity against Pseudomonas aeruginosa 16-11 in CAMH broth medium supplemented with 0.41 to 0.51 mM Mg2+ in presence of aztreonam by checkerboard assay; assay type: functional
Pseudomonas aeruginosa [25] = assay: Synergistic antibacterial activity against Pseudomonas aeruginosa 13-35 in CAMH broth medium supplemented with 0.41 to 0.51 mM Mg2+ in presence of aztreonam by checkerboard assay; assay type: functional
Pseudomonas aeruginosa [26] = assay: Synergistic antibacterial activity against Pseudomonas aeruginosa 12-1 in CAMH broth medium supplemented with 0.41 to 0.51 mM Mg2+ in presence of aztreonam by checkerboard assay; assay type: functional
Pseudomonas aeruginosa [27] = assay: Synergistic antibacterial activity against Pseudomonas aeruginosa PAO1 in CAMH broth medium supplemented with 20.99 to 21.09 mM Mg2+ in presence of aztreonam by checkerboard assay; assay type: functional
Pseudomonas aeruginosa [28] = assay: Synergistic antibacterial activity against Pseudomonas aeruginosa 16-11 in CAMH broth medium supplemented with 20.99 to 21.09 mM Mg2+ in presence of aztreonam by checkerboard assay; assay type: functional
Pseudomonas aeruginosa [29] = assay: Synergistic antibacterial activity against Pseudomonas aeruginosa 12-1 in CAMH broth medium supplemented with 20.99 to 21.09 mM Mg2+ in presence of aztreonam by checkerboard assay; assay type: functional
Pseudomonas aeruginosa [30] = assay: Synergistic antibacterial activity against Pseudomonas aeruginosa PAO1 assessed as fractional inhibitory concentration index in CAMH broth medium supplemented with 0.41 to 0.51 mM Mg2+ in presence of aztreonam by checkerboard assay; assay type: functional
Pseudomonas aeruginosa [31] = assay: Synergistic antibacterial activity against Pseudomonas aeruginosa 16-11 assessed as fractional inhibitory concentration index in CAMH broth medium supplemented with 0.41 to 0.51 mM Mg2+ in presence of aztreonam by checkerboard assay; assay type: functional
Pseudomonas aeruginosa [32] = assay: Synergistic antibacterial activity against Pseudomonas aeruginosa 13-35 assessed as fractional inhibitory concentration index in CAMH broth medium supplemented with 0.41 to 0.51 mM Mg2+ in presence of aztreonam by checkerboard assay; assay type: functional
Pseudomonas aeruginosa [33] = assay: Synergistic antibacterial activity against Pseudomonas aeruginosa 12-1 assessed as fractional inhibitory concentration index in CAMH broth medium supplemented with 0.41 to 0.51 mM Mg2+ in presence of aztreonam by checkerboard assay; assay type: functional
Pseudomonas aeruginosa [34] = assay: Synergistic antibacterial activity against Pseudomonas aeruginosa PAO1 assessed as fractional inhibitory concentration index in CAMH broth medium supplemented with 20.99 to 21.09 mM Mg2+ in presence of aztreonam by checkerboard assay; assay type: functional
Pseudomonas aeruginosa [35] = assay: Synergistic antibacterial activity against Pseudomonas aeruginosa 16-11 assessed as fractional inhibitory concentration index in CAMH broth medium supplemented with 20.99 to 21.09 mM Mg2+ in presence of aztreonam by checkerboard assay; assay type: functional
Pseudomonas aeruginosa [36] = assay: Synergistic antibacterial activity against Pseudomonas aeruginosa 13-35 assessed as fractional inhibitory concentration index in CAMH broth medium supplemented with 20.99 to 21.09 mM Mg2+ in presence of aztreonam by checkerboard assay; assay type: functional
Pseudomonas aeruginosa [37] = assay: Synergistic antibacterial activity against Pseudomonas aeruginosa 12-1 assessed as fractional inhibitory concentration index in CAMH broth medium supplemented with 20.99 to 21.09 mM Mg2+ in presence of aztreonam by checkerboard assay; assay type: functional

Question: For `NCCC[C@H](NC(=O)C[C@@H](N)Cc1ccccc1)C(=O)Nc1ccc2ccccc2c1`, which “fractional inhibitory concentration index (FICI)” value (Pseudomonas aeruginosa [1]) is on record?
Answer: 0.375

Question: What about the CC50 at 24 h [2] of the same compound?
Answer: > 100 µM

Question: And the CC50 at 24 h [3]?
Answer: > 100 µM

Question: And the MIC (Pseudomonas aeruginosa [4])?
Answer: 2 µg/mL

Question: And the MIC (Pseudomonas aeruginosa [5])?
Answer: > 512 µg/mL

Question: And the MIC (Pseudomonas aeruginosa [6])?
Answer: > 512 µg/mL

Question: And the MIC (Pseudomonas aeruginosa [7])?
Answer: > 512 µg/mL

Question: And the MIC (Pseudomonas aeruginosa [8])?
Answer: > 512 µg/mL

Question: And the MIC (Pseudomonas aeruginosa [9])?
Answer: 32 µg/mL

Question: And the MIC (Pseudomonas aeruginosa [10])?
Answer: 16 µg/mL

Question: And the “fractional inhibitory concentration index (FICI)” value (Pseudomonas aeruginosa [11])?
Answer: 0.5

Question: And the “fractional inhibitory concentration index (FICI)” value (Pseudomonas aeruginosa [12])?
Answer: 0.375

Question: And the “fractional inhibitory concentration index (FICI)” value (Pseudomonas aeruginosa [13])?
Answer: 1.25

Question: What about the “fractional inhibitory concentration index (FICI)” value (Pseudomonas aeruginosa [14]) of the same compound?
Answer: 0.5

Question: And the “fractional inhibitory concentration index (FICI)” value (Pseudomonas aeruginosa [15])?
Answer: <0.5

Question: What about the “fractional inhibitory concentration index (FICI)” value (Pseudomonas aeruginosa [16]) of the same compound?
Answer: 0.375

Question: And the “fractional inhibitory concentration index (FICI)” value (Pseudomonas aeruginosa [17])?
Answer: 0.313

Question: What about the “fractional inhibitory concentration index (FICI)” value (Pseudomonas aeruginosa [18]) of the same compound?
Answer: 0.5

Question: What about the “fractional inhibitory concentration index (FICI)” value (Pseudomonas aeruginosa [19]) of the same compound?
Answer: <0.375

Question: What about the MIC (Pseudomonas aeruginosa [20]) of the same compound?
Answer: 512 µg/mL

Question: What about the MIC (Pseudomonas aeruginosa [21]) of the same compound?
Answer: 512 µg/mL

Question: And the MIC (Pseudomonas aeruginosa [22])?
Answer: 512 µg/mL

Question: And the MIC (Pseudomonas aeruginosa [23])?
Answer: 512 µg/mL

Question: What about the MIC (Pseudomonas aeruginosa [24]) of the same compound?
Answer: 128 µg/mL

Question: And the MIC (Pseudomonas aeruginosa [25])?
Answer: 128 µg/mL

Question: And the MIC (Pseudomonas aeruginosa [26])?
Answer: 128 µg/mL

Question: And the MIC (Pseudomonas aeruginosa [27])?
Answer: 128 µg/mL

Question: And the MIC (Pseudomonas aeruginosa [28])?
Answer: 128 µg/mL

Question: What about the MIC (Pseudomonas aeruginosa [29]) of the same compound?
Answer: 128 µg/mL

Question: And the “fractional inhibitory concentration index (FICI)” value (Pseudomonas aeruginosa [30])?
Answer: 0.5

Question: And the “fractional inhibitory concentration index (FICI)” value (Pseudomonas aeruginosa [31])?
Answer: 1.25

Question: And the “fractional inhibitory concentration index (FICI)” value (Pseudomonas aeruginosa [32])?
Answer: 0.5

Question: And the “fractional inhibitory concentration index (FICI)” value (Pseudomonas aeruginosa [33])?
Answer: 1.25

Question: What about the “fractional inhibitory concentration index (FICI)” value (Pseudomonas aeruginosa [34]) of the same compound?
Answer: 0.375

Question: And the “fractional inhibitory concentration index (FICI)” value (Pseudomonas aeruginosa [35])?
Answer: 1.25

Question: And the “fractional inhibitory concentration index (FICI)” value (Pseudomonas aeruginosa [36])?
Answer: 0.5

Question: And the “fractional inhibitory concentration index (FICI)” value (Pseudomonas aeruginosa [37])?
Answer: 1.25

Question: What does the source list for `N=C(N)NCCC[C@H](NC(=O)[C@@H](N)Cc1ccccc1)C(=O)Nc1ccc2ccccc2c1` [PABETAN] (H-Phe-Arg-βNA)?
Answer: fractional inhibitory concentration index (FICI) (Pseudomonas aeruginosa [1]): 0.375; CC50 at 24 h [2]: > 100 µM; CC50 at 24 h [3]: > 100 µM; MIC (Pseudomonas aeruginosa [4]): 2 µg/mL; MIC (Pseudomonas aeruginosa [5]): 512 µg/mL (≈ 1150 µM); MIC (Pseudomonas aeruginosa [6]; read-out: MIC): 512 µg/mL (≈ 1150 µM); MIC (Pseudomonas aeruginosa [7]): 512 µg/mL (≈ 1150 µM); MIC (Pseudomonas aeruginosa [8]): 512 µg/mL (≈ 1150 µM); MIC (Pseudomonas aeruginosa [9]): 16 µg/mL; MIC (Pseudomonas aeruginosa [10]): 8 µg/mL; fractional inhibitory concentration index (FICI) (Pseudomonas aeruginosa [11]): 0.5; fractional inhibitory concentration index (FICI) (Pseudomonas aeruginosa [12]): 0.375; fractional inhibitory concentration index (FICI) (Pseudomonas aeruginosa [13]): 0.75; fractional inhibitory concentration index (FICI) (Pseudomonas aeruginosa [14]): 0.375; fractional inhibitory concentration index (FICI) (Pseudomonas aeruginosa [15]): 0.5; fractional inhibitory concentration index (FICI) (Pseudomonas aeruginosa [16]): 0.375; fractional inhibitory concentration index (FICI) (Pseudomonas aeruginosa [17]): 0.313; fractional inhibitory concentration index (FICI) (Pseudomonas aeruginosa [18]): 0.5; fractional inhibitory concentration index (FICI) (Pseudomonas aeruginosa [19]): <0.375; MIC (Pseudomonas aeruginosa [20]): 512 µg/mL; MIC (Pseudomonas aeruginosa [21]): 512 µg/mL; MIC (Pseudomonas aeruginosa [22]): 512 µg/mL; MIC (Pseudomonas aeruginosa [23]): 512 µg/mL; MIC (Pseudomonas aeruginosa [24]): 128 µg/mL; MIC (Pseudomonas aeruginosa [25]): 128 µg/mL; MIC (Pseudomonas aeruginosa [26]): 128 µg/mL; MIC (Pseudomonas aeruginosa [27]): 128 µg/mL; MIC (Pseudomonas aeruginosa [28]): 128 µg/mL; MIC (Pseudomonas aeruginosa [29]): 128 µg/mL; fractional inhibitory concentration index (FICI) (Pseudomonas aeruginosa [30]): 0.5; fractional inhibitory concentration index (FICI) (Pseudomonas aeruginosa [31]): 1.25; fractional inhibitory concentration index (FICI) (Pseudomonas aeruginosa [32]): 0.5; fractional inhibitory concentration index (FICI) (Pseudomonas aeruginosa [33]): 1.25; fractional inhibitory concentration index (FICI) (Pseudomonas aeruginosa [34]): 0.5; fractional inhibitory concentration index (FICI) (Pseudomonas aeruginosa [35]): 1.25; fractional inhibitory concentration index (FICI) (Pseudomonas aeruginosa [36]): 0.375; fractional inhibitory concentration index (FICI) (Pseudomonas aeruginosa [37]): 1.25
